{"source": "paper PMC7560154", "about": "“Novel Antimicrobial Peptide from Temporin L in The Treatment of Staphylococcus pseudintermedius and Malassezia pachydermatis in Polymicrobial Inter-Kingdom Infection” (Antibiotics, 2020)", "key": {"M. pachydermatis": {"system": "M. pachydermatis", "test": "Resistance acquisition test (serial subculture with sublethal peptide 8)", "assay_type": "cell-based, Malassezia pachydermatis", "description": "To evaluate if the yeast acquired resistance to the drug, after a continued treatment, M. pachydermatis was subcultured with a sub lethal concentration of peptide 8 (1/2 MIC). Briefly, a final 3.12 μM peptide 8 concentration was added to yeast inoculum suspension equivalent to 1–3 × 10^6 CFU/mL in Sabouraud dextrose broth (SB) and incubated 72 h at 30 °C (inoculum 1). After this period, optical density was measured and a new yeast subculture with 3.12 μM of peptide 8 was prepared starting from inoculum 1 (inoculum 2). Three days after, optical density was again recorded and a new inoculum in presence of peptide 8 prepared. This was repeated until evident yeast death was observed."}, "[1]": {"system": "methicillin-susceptible S. pseudintermedius (MSSP)", "test": "Time-kill assay, MSSP", "assay_type": "cell-based, Staphylococcus pseudintermedius", "description": "Time kill assay was carried out as previously described. […] Plates were incubated at 37 °C on an orbital shaker at 120 rpm. Viability assessments were performed at 0, 2, 4, 6 and 24 h by plating 0.01 mL undiluted and 10-fold serially diluted samples onto Mueller–Hinton plates in triplicate. After overnight incubation at 37 °C, bacterial colonies were counted and compared with counts from control cultures."}, "MRSP": {"system": "MRSP", "test": "Checkerboard synergy of peptide 8 and oxacillin", "assay_type": "cell-based, Staphylococcus pseudintermedius", "settings": "MRSP", "description": "The interaction between peptide 8 and oxacillin against MRSP was evaluated by the checkerboard method. Briefly, twofold serial dilutions of oxacillin distributed in horizontal rows of 96-well microtiter plate were cross-diluted vertically by twofold serial dilutions of peptide 8 to at least double the MIC. The peptide 8 tested concentration ranging from 0.19 to 12.5 μM and oxacillin from 1.25 to 25 μM (0.5 to 10 μg/mL). Microtiter plates were inoculated with bacteria at an approximate concentration of 10^5 CFU/mL and incubated at 37 °C for 24 h. […] To evaluate the effect of the combination treatment, the fractional inhibitory concentration (FIC) index for each combination was calculated as follows: FIC index = FIC of peptide 8 + FIC of oxacillin, where FIC of peptide 8 (or oxacillin) was defined as the ratio of MIC of peptide 8 (or oxacillin) in combination and MIC of peptide 8 (or oxacillin) alone. The FIC index values were interpreted as follows: ≤0.5, synergistic; >0.5 to ≤1.0, additive; >1.0 to ≤2.0, indifferent; and >2.0, antagonistic effects."}, "MSSP mature biofilm [2]": {"system": "MSSP mature biofilm", "test": "Mature biofilm biomass, crystal violet assay, MSSP", "assay_type": "cell-based, Staphylococcus pseudintermedius", "settings": "MSSP one-day-old biofilm, up to 25 μM, 24 h", "description": "Biofilms were allowed to form in each well of a 96-well microtiter plate, as described by Stepanovic. After 24 h, planktonic cells were aspirated, and the plates were washed with 200 μL of PBS. Cells biofilms were exposed to 200 μL of peptide 8 at the final concentration ranging from 6.25 to 25 μM and the plate was further incubated for 24 h at 37 °C. Positive controls were non-treated cells incubated with 200 μL of medium broth. At the end of the experiment crystal violet-staining was performed to assess biofilm mass."}, "MSSP mature biofilm [3]": {"system": "MSSP mature biofilm", "test": "Mature biofilm metabolic activity, XTT assay, MSSP", "assay_type": "cell-based, Staphylococcus pseudintermedius", "settings": "24 h", "description": "The metabolic activity of MSSP and MRSP mature biofilms was quantified by the XTT [2,3-bis(2-methyloxy-4-nitro-5-sulfophenyl)-2H-tetrazolium-5-carboxanilide] (Roche Diagnostics, Germany) reduction assay. The assay was conducted as previously described with some modifications. XTT (150 µL) was added to biofilms in each well and the plates were incubated for 40 min at 37 °C in the dark. The reduction of the tetrazolium salt by cellular dehydrogenase into orange formazan dye was photometrically measured at 490 nm. The medium was set as negative control. Viability values for each well were compared to controls."}, "mecA gene expression": {"system": "mecA gene expression", "test": "mecA gene expression by RT-PCR", "assay_type": "cell-based, Staphylococcus pseudintermedius", "description": "The reaction was carried out in a DNA thermal cycler (MyCycler, Bio-Rad, Hercules, CA, USA). The PCR products were analysed by electrophoresis on 1.8% agarose gel in TBE and analysed on a Gel Doc EZ System (Bio-Rad, Hercules, CA, USA). RNA extraction was performed by using GenUp Total RNA kit (BiotechRabbit, Berlin, Germany) according to the manufacturer’s instructions. Five hundred nanograms of total cellular RNA were reverse-transcribed (RevertUP II Reverse Transcriptase, BiotechRabbit, Berlin, Germany) into cDNA using random hexamer primers (Random hexamer, Roche Diagnostics, Mannheim, Germany) at 48 °C for 60 min according to the manufacturer’s instructions. RT-PCR was carried out using 2 μL of cDNA, as reported above. Quantification data were normalized to the reference gene for 16S rRNA gene and analyzed by Image Lab software 5.2.1 (Bio-Rad, Hercules, CA, USA)."}, "[4]": {"settings": "ref unpublished results, cited from earlier work"}}, "note": "Where a SMILES comes first, the peptide text is derived from it. [ ]: non-standard residue; d: D form."}
{"smiles": "CC[C@H](C)[C@H](NC(=O)[C@H](CCCNC(=N)N)NC(=O)[C@@H](CCCCN)NC(=O)[C@@H](CC(C)C)NC(=O)[C@H](Cc1ccccc1)NC(=O)[C@H](CCCCN)NC(=O)[C@H](CO)NC(=O)[C@H](Cc1ccccc1)NC(=O)[C@H](Cc1c[nH]c2ccccc12)NC(=O)[C@@H]1CCCN1C(=O)[C@@H](NC(=O)[C@@H](N)Cc1ccccc1)C(C)C)C(=O)N[C@@H](CC(C)C)C(N)=O", "note": "[Peptide 8] (H-FVPWFSKF[dL][dK]RIL-NH2; N-terminus assumed)", "values": [{"measurement": "Log10 CFU/Ml After 15 Generation Subcultures Including TL48", "setting": "M. pachydermatis; 3.12 μM (1/2 MIC), 15 subcultures (about 2 months), three independent experiments in triplicate", "value": "2.10 ± 0.12", "unit": "Log10 CFU/Ml"}, {"measurement": "Log10 CFU/Ml After 1 Generation Subculture Including TL48", "setting": "M. pachydermatis; 3.12 μM (1/2 MIC), Sabouraud dextrose broth, 72 h at 30 °C per subculture, three independent experiments in triplicate", "value": "5.80 ± 0.25", "unit": "Log10 CFU/Ml"}, {"measurement": "Acquisition of resistance after prolonged treatment", "setting": "M. pachydermatis; 2 months of repeated sublethal concentration treatment", "value": "did not acquire resistance"}, {"measurement": "Log10CFU/mL 0 h", "setting": "[1]; peptide at MIC value, 37 °C, 0 h, three independent experiments in triplicate", "value": "5.45 ± 0.25", "unit": "Log10CFU/mL"}, {"measurement": "Log10CFU/mL 1 h", "setting": "[1]; peptide at MIC value, 1 h", "value": "0.60 ± 0.12", "unit": "Log10CFU/mL"}, {"measurement": "Log10CFU/mL 2 h", "setting": "[1]; peptide at MIC value, 2 h", "value": "0.58 ± 0.32", "unit": "Log10CFU/mL"}, {"measurement": "Log10CFU/mL 4 h", "setting": "[1]; peptide at MIC value, 4 h", "value": "0.89 ± 0.15", "unit": "Log10CFU/mL"}, {"measurement": "Log10CFU/mL 6 h", "setting": "[1]; peptide at MIC value, 6 h", "value": "0.46 ± 0.15", "unit": "Log10CFU/mL"}, {"measurement": "Log10CFU/mL 24 h", "setting": "[1]; peptide at MIC value, 24 h", "value": "4.97 ± 0.30", "unit": "Log10CFU/mL"}, {"measurement": "Bactericidal or bacteriostatic activity", "setting": "[1]; time-kill at MIC value", "value": "bacteriostatic"}, {"measurement": "FICindex", "setting": "MRSP; peptide 8 + oxacillin, checkerboard, 37 °C 24 h, ≤0.5 synergistic", "value": 0.37}, {"measurement": "Concentration of peptide 8 in the most synergistic combination", "setting": "MRSP; with 3.1 μM oxacillin, 1/4 MIC", "value": 1.56, "unit": "µM"}, {"measurement": "Effect on mature biofilm biomass", "setting": "MSSP mature biofilm [2]", "value": "did not affect the biomass"}, {"measurement": "Reduction of biofilm viability", "setting": "MSSP mature biofilm [3]; 12.5 μM", "value": 38, "unit": "%"}, {"measurement": "Effect on biofilm viability at 25 μM", "setting": "MSSP mature biofilm [3]; 25 μM", "value": "reduced effect"}, {"measurement": "Regulation of mecA gene expression", "setting": "mecA gene expression", "value": "did not regulate mecA gene expression"}, {"measurement": "Aggregation state and conformation in aqueous solution", "setting": "[4]; aqueous solution", "value": "monomeric with a random coil conformation"}, {"measurement": "Aggregation in membrane mimetic environments", "setting": "[4]; membrane mimetic environments", "value": "significant ability to aggregate"}]}
